# From US6555545B2, “Adenosine A2A receptor antagonists for treating and preventing hepatic fibrosis, cirrhosis and fatty liver” (New York University, priority 2000, dated 2003)
# “Also recorded” adds a separate entry of the source.
# How the values were obtained:
# [1] = tested on: rat hepatic stellate cells (rHSC); assay: Collagen production by immortalized rat hepatic stellate cells (14C-proline pulse, phosphorimager); assay type: cell-based; settings: for collagen production, % of control: n=4; for effect of antagonist on CGS-21680-mediated increase in collagen production (in words): rHSC, CSC 10 micro-M, preincubation four hours
# Procedure: To determine whether an increase in adenosine release would promote collagen production, immortalized rat hepatic stellate cells (rHSC, gift from Dr. S. L. Friedman) were incubated with agonists and antagonists at various adenosine receptors, after which collagen production was quantitated. Rat hepatic stellate cells were treated with […] at various concentrations with or without the addition of 10 micro-M adenosine A2A receptor antagonist CSC following pulsing with ^14C-proline. The collagen was extracted by ethanol precipitation and quantified following phosphorimager exposure.
# The cAMP/protein kinase A pathway is known to mediate adenosine A2A receptor signal transduction. The effect of protein kinase A inhibition was studied on CGS-21680-mediated collagen production in rHSC. Rat HSC were treated with 10 micromolar CGS-21680 for four hours at 37° C., 5% CO2, with or without the addition of 10 micromolar KT-5720, a protein kinase A inhibitor, and collagen production was extracted by ethanol precipitation and quantified following phosphoimager exposure.
# [2] = tested on: human hepatic stellate cells (LX-1); assay: Collagen production by immortalized human hepatic stellate cells; assay type: cell-based
# Procedure: Since A2A receptor selectivity of CGS-21680 decreases with increasing concentration, and recruitment of A2B receptor activity is observed with CGS-21680 concentrations above 100 nM, agonistic effects in A2B receptors by high-dose CGS-21680 is likely to be responsible for the decrease in collagen production. This is consistent with Dubey's observations on cardiac fibroblasts that adenosine A2B receptor activation decreases collagen synthesis, Dubey et al., Hypertension 1998; 31(4):943-8. Alternatively, CGS-21680-induced changes in collagen production may be the result of alterations in the expression of collagenase/metalloproteinases (MMP) or their inhibitors, tissue inhibitors of metalloproteinases, TIMP. Adenosine, acting through one of its receptors, most likely the A2B receptor, has been noted to alter metalloproteinase expression (Boyle et al., Arthritis Rheum 1996:39(6):923-30.
# HepG2 cells = assay: Adenosine release from HepG2 cells, quantitated by HPLC; settings: for effect on adenosine release (in words): pharmacologically relevant concentrations, ethanol up to 80 mg/dl
smiles,measurement,setting,value
CCNC(=O)[C@H]1O[C@@H](n2cnc3c(N)nc(NCCc4ccc(CCC(=O)O)cc4)nc32)[C@H](O)[C@@H]1O [CGS-21680],"collagen production, % of control","[1]; 10 micromolar CGS-21680 alone, four hours",339±99 % of control
same,increase in collagen production over control,"[1]; concentration of 10 mM as printed, n=6, p<0.001",3223±917%
same,EC50,"[1]; cultured rat stellate cell line, dose-dependent, read-out: EC50 for promotion of collagen synthesis and release",~300 nM
same,maximal promotion of collagen synthesis and release,"[1]; cultured rat stellate cell line, p<0.004",≤ 20 fold
same,effect on collagen production (in words),[2]; CGS-21680 concentrations above 100 nM,collagen production by LX-1 decreases
same,effect on collagen production (in words),"[2]; CGS-21680 concentrations up to 100 nM, dose dependent",increased collagen production
"Cn1c(=O)c2c(nc(C=Cc3cccc(Cl)c3)n2C)n(C)c1=O [CSC, 8-(3-chlorostyryl)-caffeine]",effect of antagonist on CGS-21680-mediated increase in collagen production (in words),[1],almost completely blocks; also recorded: almost completely abrogated
same,effect of antagonist on CGS-21680-induced collagen production (in words),[2],blocked by CSC
"CCCn1c(=O)c2[nH]c(C3CCCC3)nc2n(CCC)c1=O [DPCPX, 8-cyclopentyldipropylxanthine]",effect of antagonist on CGS-21680-mediated increase in collagen production (in words),[1],little effect; also recorded: minimal inhibitory effects
CCCCCCOC(=O)[C@]1(O)C[C@@H]2O[C@@]1(C)n1c3ccccc3c3c4c(c5c6ccccc6n2c5c31)C(=O)NC4 [KT-5720],"collagen production, % of control","[1]; 10 micromolar CGS-21680 plus 10 micromolar KT-5720, four hours",181±69 % of control
same,suppression of the CGS-21680-mediated increase in collagen production,"[1]; 10 micromolar KT-5720 with 10 micromolar CGS-21680, four hours, n=4, p<0.013",47%
CCCn1c(=O)[nH]c(=O)c2[nH]cnc21 [enprofylline],effect of antagonist on CGS-21680-mediated increase in collagen production (in words),[1],little effect; also recorded: minimal inhibitory effects
CCO [ethanol],increase in adenosine release from control,"HepG2 cells; ethanol 40 mg/dl, three hours",four-fold
same,adenosine release,"HepG2 cells; ethanol 40 mg/dl, three hours, n=6, p<0.001 vs control 37±35 nM",206 ± 79 nM
same,toxicity to HepG2 cells,HepG2 cells; ethanol concentrations greater than 80 mg/dl,toxic to HepG2 cells
same,effect on adenosine release (in words),HepG2 cells,increased adenosine release; also recorded: promote adenosine release
same,effect of ethanol on adenosine release from methotrexate-treated HepG2 cells,"HepG2 cells; relevant concentrations of methotrexate, data not shown",further increased adenosine release
CN(Cc1cnc2nc(N)nc(N)c2n1)c1ccc(C(=O)N[C@@H](CCC(=O)O)C(=O)O)cc1 [methotrexate],increase in adenosine release vs control,"HepG2 cells; methotrexate 10 nM, three hours",six-fold
same,adenosine release,"HepG2 cells; methotrexate 10 nM, three hours, n=6, p<0.001 vs control 41±39 nM",242 ± 82 nM
same,effect on adenosine release (in words),HepG2 cells,increased adenosine release; also recorded: promotes adenosine release
